Data as given in patent US20230301909A1 (The University of Tokyo, priority 2020, published 2023).

System: human placenta
Assay: Human placental perfusion model (ex vivo placental permeability)
Assay type: in vitro ADME
Conditions: FIG. 12A
Procedure: For this Example, the permeability of polymer micelles, low molecular compounds and polymers of different sizes through the human placenta was evaluated using a human placental perfusion model.
The human placental perfusion model was created according to NPL 4 (K. Shintaku et. al., Drug Metab. Dispos. 37 (2009) 962) and NPL 5 (J. R. Huston et. al., Clin, Pharmacol. Ther, 90 (2011) 67). […] DACH-platin encapsulating micelles (30 nm and 70 nm particle sizes) (DACH-platin dose: 85.4 mg/L), oxaliplatin (2.7 mg/L.) and Cy3-labeled 8-arm PEG (fluorescence intensity: 3,000 (RFU)) were perfused for 60 minutes, and 1 ml of each solution was recovered every 5 minutes from the vein on the fetus side. The platinum contents of the recovered samples from the oxaliplatin-and DACH-platin encapsulating micelle-administered groups were measured by inductively coupled […] mass spectrometry. The fluorescence intensities of the polymers were quantified by HPLC. […]
The human placental perfusion model was created according to NPL 4 (K. Shintaku et. al., Drug Metab. Dispos. 37 (2009) 962) and NPL 5 (J. R. Huston et. al., Clin. Pharmacol. Ther. 90 (2011) 67). […] The pH of the recovered sample was adjusted, releasing the nicotinamide, and the nicotinamide in the solution was measured by HPLC (detector: EXTREMA by JASCO Corp., column: TSKgel ODS-120H by Tosoh Corp., 1.9 μm). […]

O=C1[O][Pt]2([NH][C@@H]3CCCC[C@H]3[NH]2)[O]C1=O [oxaliplatin] was tested, and the “accumulation in the placenta” value (human placental perfusion) was “accumulation of oxaliplatin in the placenta” and the “permeation through the placenta” value (perfused for 60 minutes, fetus-side vein samples) was “permeated the placenta”.
